The source of these data is US20220041606A1, “POSITIVE ALLOSTERIC MODULATORS OF THE MUSCARINIC ACETYLCHOLINE RECEPTOR M1” (Vanderbilt University, priority 2020, published 2022).

Assay [1] has as its target T1, human mAChR M1 (Homo sapiens, UniProt P11229).
T1 construct: host or cells: CHO-K1 cells (ATCC), stably transfected using Lipofectamine2000
T1 sequence (P11229 1-460): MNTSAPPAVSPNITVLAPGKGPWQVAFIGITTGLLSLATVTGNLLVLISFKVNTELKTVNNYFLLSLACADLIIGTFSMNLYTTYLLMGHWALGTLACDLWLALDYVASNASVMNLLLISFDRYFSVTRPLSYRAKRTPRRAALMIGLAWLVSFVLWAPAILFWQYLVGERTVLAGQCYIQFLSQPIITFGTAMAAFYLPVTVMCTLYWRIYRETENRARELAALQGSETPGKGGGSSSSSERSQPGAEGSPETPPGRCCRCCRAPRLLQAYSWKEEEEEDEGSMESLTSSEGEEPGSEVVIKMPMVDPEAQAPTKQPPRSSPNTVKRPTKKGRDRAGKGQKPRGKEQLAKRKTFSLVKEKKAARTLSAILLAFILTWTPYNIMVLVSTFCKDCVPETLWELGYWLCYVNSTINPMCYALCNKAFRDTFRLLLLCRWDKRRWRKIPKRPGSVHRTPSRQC
As to the kind of experiment: mAChR M1 cell-based functional assay (calcium mobilization), PAM activity: increase in the EC20 acetylcholine response. The following applies: CHO-K1 cells expressing hM1; potentiation of EC20 acetylcholine response. In short, it runs like this: (§1)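 CHO-K1 cells stably expressing hM1, loaded with Fluo-4 AM; calcium flux read on FDSS 6000. Compound (11-point, 1:3 CRC) added at 4 s, EC20 acetylcholine at 144 s, EC80 at 230 s; agonism from response to compound alone, PAM from increase in EC20 response; Emax relative to acetylcholine maximum, four-parameter fit.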

Assay [2] has as its target T1, human mAChR M1. Put plainly: mAChR M1 cell-based functional assay (calcium mobilization), agonist activity upon compound addition. As to conditions: CHO-K1 cells expressing hM1; for EC50: compound alone, before acetylcholine addition; for Emax: relative to the maximum for acetylcholine. The method, boiled down: as §1

Regarding `Cn1cc(-c2ccc(Cn3cc(C(=O)N[C@H]4CCC[C@@H]4O)c4occc4c3=O)c(F)c2)cn1` [Compound D14, 5-(2-fluoro-4-(1-methyl-1H-pyrazol-4-yl)benzyl)-N-((1S,2S)-2-hydroxycyclopentyl)-4-oxo-4,5-dihydrofuro[3,2-c]pyridine-7-carboxamide], at human mAChR M1 [1], the EC50 is greater than 10000 nM and the Emax was found to be 51%. Also, on human mAChR M1 [2], the EC50 was greater than 10 µM and the Emax is less than 5%.

Consider `Cc1cn2c(=O)n(Cc3ccc(-n4cccn4)cc3)cc(C(=O)N[C@H]3CCOC[C@@H]3O)c2n1` [Compound B27, 6-(4-(1H-pyrazol-1-yl)benzyl)-N-((3R,4S)-3-hydroxytetrahydro-2H-pyran-4-yl)-2-methyl-5-oxo-5,6-dihydroimidazo[1,2-c]pyrimidine-8-carboxamide], for which, at human mAChR M1 [1], the EC50 was no less than 10000 nM and the maximum response (Emax) is 30%. Besides, on human mAChR M1 [2], the EC50 is greater than 10 µM and the Emax was less than 5%.

With `Cc1cc(C)cc(-c2ccc(Cn3cc(C(=O)N[C@H]4CCOC[C@@H]4O)c4ncccc4c3=O)c(F)c2)c1` [Compound A30, 6-((3-fluoro-3′,5′-dimethyl-[1,1′-biphenyl]-4-yl)methyl)-N-((3R,4S)-3-hydroxytetrahydro-2H-pyran-4-yl)-5-oxo-5,6-dihydro-1,6-naphthyridine-8-carboxamide], on human mAChR M1 [1], the EC50 amounted to 4610 nM and the Emax was found to be 47%. For the same compound, at human mAChR M1 [2], the EC50 was greater than 10 µM and the Emax is less than 5%.

On to `Cc1cc(-c2ccc(Cn3cc(C(=O)N[C@H]4CCOC[C@@H]4O)c4ncccc4c3=O)c(F)c2)ccn1` [Compound A26, 6-(2-fluoro-4-(2-methylpyridin-4-yl)benzyl)-N-((3R,4S)-3-hydroxytetrahydro-2H-pyran-4-yl)-5-oxo-5,6-dihydro-1,6-naphthyridine-8-carboxamide], for which, at human mAChR M1 [1], the EC50 stood at 490 nM and the maximal effect (Emax) was determined as 75%. The Emax on human mAChR M1 [2] is 10%.

On to `O=C(N[C@H]1CCOC[C@@H]1O)c1cn(Cc2c(F)cc(-c3ccns3)cc2F)c(=O)c2cccnc12` [Compound A50, 6-(2,6-difluoro-4-(isothiazol-5-yl)benzyl)-N-((3R,4S)-3-hydroxytetrahydro-2H-pyran-4-yl)-5-oxo-5,6-dihydro-1,6-naphthyridine-8-carboxamide], for which the concentration for a half-maximal effect (EC50) was 1790 nM on human mAChR M1 [1] and greater than 10 µM at human mAChR M1 [2]. For the same compound, the Emax at human mAChR M1 [1] is 69%; on human mAChR M1 [2], less than 5%.

On to `CC(C)[C@@H](CO)NC(=O)c1cn(Cc2ccc(-c3cnn(C)c3)cc2F)c(=O)c2nccnc12` [Compound A82, (S)-6-(2-fluoro-4-(1-methyl-1H-pyrazol-4-yl)benzyl)-N-(1-hydroxy-3-methylbutan-2-yl)-5-oxo-5,6-dihydropyrido[3,4-b]pyrazine-8-carboxamide], for which, at human mAChR M1 [1], the EC50 is no less than 10000 nM and the Emax amounted to 26%. At human mAChR M1 [2], the EC50 was greater than 10 µM and the Emax is less than 5%.

In the case of `Cn1cc2c(-c3cc(F)c(Cn4cc(C(=O)N[C@H]5CCCCC[C@@H]5O)c5ncncc5c4=O)c(F)c3)cccc2n1` [Compound A85, 6-(2,6-difluoro-4-(2-methyl-2H-indazol-4-yl)benzyl)-N-((1S,2S)-2-hydroxycycloheptyl)-5-oxo-5,6-dihydropyrido[4,3-d]pyrimidine-8-carboxamide], the EC50 at human mAChR M1 [1] was no less than 10000 nM; on human mAChR M1 [2] it was greater than 10 µM. Moreover, the results for the Emax on human mAChR M1 [1] and at human mAChR M1 [2] were 41% and less than 5%, respectively.

On to `Cn1cc(-c2ccc(Cn3cc(C(=O)N[C@@H]4CC[C@H]4O)c4occc4c3=O)c(F)c2)cn1` (stereo in doubt) [Compound D15, 5-(2-fluoro-4-(1-methyl-1H-pyrazol-4-yl)benzyl)-N-((1R,2R)-2-hydroxycyclobutyl)-4-oxo-4,5-dihydrofuro[3,2-c]pyridine-7-carboxamide], for which, at human mAChR M1 [1], the EC50 was greater than 10000 nM and the Emax came out at 29%. For the same compound, at human mAChR M1 [2], the EC50 was greater than 10 µM and the Emax was less than 5%.

For the compound `Cc1cn2c(=O)n(Cc3ccc(-n4cccn4)cc3)cc(C(=O)N[C@H]3CCCC[C@@H]3O)c2n1` [Compound B28, 6-(4-(1H-pyrazol-1-yl)benzyl)-N-((1S,2S)-2-hydroxycyclohexyl)-2-methyl-5-oxo-5,6-dihydroimidazo[1,2-c]pyrimidine-8-carboxamide], at human mAChR M1 [1], the EC50 was no less than 10000 nM and the Emax worked out at 30%. For the same compound, at human mAChR M1 [2], the EC50 was greater than 10 µM and the Emax is less than 5%.

As to `Cn1ccc(-c2ccc(Cn3cc(C(=O)NC4CC5(COC5)C4)c4ncccc4c3=O)c(F)c2)n1` [Compound A5, 6-(2-Fluoro-4-(1-methyl-1H-pyrazol-3-yl)benzyl)-5-oxo-N-(2-oxaspiro[3.3]heptan-6-yl)-5,6-dihydro-1,6-naphthyridine-8-carboxamide], the values for the EC50 on human mAChR M1 [1] and on human mAChR M1 [2] were 2740 nM and greater than 10 µM, respectively. In addition, the Emax at human mAChR M1 [1] was 44%; at human mAChR M1 [2] it was less than 5%.

For the compound `O=C(N[C@H]1CCCC[C@@H]1O)c1cn(Cc2ccc(-n3cccn3)cc2)c(=O)n2ccnc12` [Compound B13, 6-(4-(1H-pyrazol-1-yl)benzyl)-N-((1S,2S)-2-hydroxycyclohexyl)-5-oxo-5,6-dihydroimidazo[1,2-c]pyrimidine-8-carboxamide], on human mAChR M1 [1], the half-maximal effective concentration (EC50) was 100 nM and the maximal response (Emax) was 70%. Further, on human mAChR M1 [2], the concentration for a half-maximal effect (EC50) came to 3.17 µM and the Emax amounted to 55%.

Consider `Cn1ccc(-c2ccc(Cn3cc(C(=O)N[C@H]4CCC[C@@H]4O)c4nccn4c3=O)c(F)c2)n1` [Compound B3, 6-(2-fluoro-4-(1-methyl-1H-pyrazol-3-yl)benzyl)-N-((1S,2S)-2-hydroxycyclopentyl)-5-oxo-5,6-dihydroimidazo[1,2-c]pyrimidine-8-carboxamide], for which the concentration giving a half-maximal response (EC50) at human mAChR M1 [1] was determined as 540 nM. The Emax on human mAChR M1 [1] is 67%; on human mAChR M1 [2], 33%.

Turning to `Cn1ccc(-c2ccc(Cn3cc(C(=O)N[C@H]4CCCCC[C@@H]4O)c4occc4c3=O)c(F)c2)n1` [Compound D9, 5-(2-fluoro-4-(1-methyl-1H-pyrazol-3-yl)benzyl)-N-((1S,2S)-2-hydroxycycloheptyl)-4-oxo-4,5-dihydrofuro[3,2-c]pyridine-7-carboxamide], the EC50 on human mAChR M1 [1] was 3090 nM; at human mAChR M1 [2], greater than 10 µM. For the same compound, the values for the Emax at human mAChR M1 [1] and on human mAChR M1 [2] were 80% and less than 5%, respectively.

On to `Cn1ccc(-c2ccc(Cn3cc(C(=O)N[C@H]4CCCCC[C@@H]4O)c4ncn(C)c4c3=O)c(F)c2)n1` [Compound C3, 5-(2-fluoro-4-(1-methyl-1H-pyrazol-3-yl)benzyl)-N-((1S,2S)-2-hydroxycycloheptyl)-3-methyl-4-oxo-4,5-dihydro-3H-imidazo[4,5-c]pyridine-7-carboxamide], for which the EC50 on human mAChR M1 [1] is 310 nM; at human mAChR M1 [2], greater than 10 µM. Moreover, the results for the Emax on human mAChR M1 [1] and on human mAChR M1 [2] were 60% and less than 5%, respectively.

In the case of `Cn1ccc(-c2ccc(Cn3cc(C(=O)NC4CC5(COC5)C4)c4occc4c3=O)c(F)c2)n1` [Compound D10, 5-(2-fluoro-4-(1-methyl-1H-pyrazol-3-yl)benzyl)-4-oxo-N-(2-oxaspiro[3.3]heptan-6-yl)-4,5-dihydrofuro[3,2-c]pyridine-7-carboxamide], the figures for the concentration for a half-maximal effect (EC50) on human mAChR M1 [1] and at human mAChR M1 [2] were greater than 10000 nM and greater than 10 µM, respectively. For the same compound, the maximal effect (Emax) on human mAChR M1 [1] was 25%; at human mAChR M1 [2], less than 5%.
